Reference: the OligoGym collection
These antisense oligonucleotides have a phosphorothioate backbone; sugars and methylation of C are not fully specified.

target: TRADD; settings: ASO
Also: test concentration or dose not given here.

Compared with AAACTGTAAGGGCTGGCT, AAAGATCAAGGTGCTTCA is higher in remaining target (mRNA or protein) (fraction of control): 0.91 for the first, no less than 1 for the second.

First: AAAGTCTGGGCAGGTGGC
Second: AAGGTGAGGCTGATCTCC
The remaining target (mRNA or protein) (fraction of control) of the first is lower: 0.56 for the first, 0.72 for the second.

Compared with AATAGCCGCAGAAGGAAC, ACCCTAAGGCCATCCAGG is lower in remaining target (mRNA or protein) (fraction of control): 0.83 for the first, 0.64 for the second.

Compared with ACTTTATTATCATTGCTT, AGATTTCGCAGCGCATCC is higher in remaining target (mRNA or protein) (fraction of control): 0.66 for the first, no less than 1 for the second.

Going from AGCGGCACCGAGTGCTGG to AGCTCCAGTTGCAGCGGC, the remaining target (mRNA or protein) (fraction of control) falls from no less than 1 to 0.82.

Going from AGCTGCCATCTCACCTCC to AGTGAGCGCCCCACCTTG, the remaining target (mRNA or protein) (fraction of control) falls from no less than 1 to 0.98.

AGTGCTGGGCGAGCGCGG and AGTTGCAGCGGCACCGAG cannot be ordered by remaining target (mRNA or protein) (fraction of control): no less than 1 for the first, no less than 1 for the second.

Going from ATGAAGTCCAGGACACCA to CAAGATTGATTCCTGTTT, the remaining target (mRNA or protein) (fraction of control) falls from no less than 1 to 0.94.

CACCCACTCTTCGTGCCC and CAGCGCCCGGCAGCCTCG cannot be ordered by remaining target (mRNA or protein) (fraction of control): no less than 1 for the first, no less than 1 for the second.

Going from CAGGCCGCCATTGGGATC to CATTTGAGACCCACAGAG, the remaining target (mRNA or protein) (fraction of control) falls from no less than 1 to 0.83.

First: CCACCTTGTCCAGCGAGG
Second: CCACGCTGAGTGTGAGCT
The remaining target (mRNA or protein) (fraction of control) of the first is lower: 0.59 for the first, 0.68 for the second.

Compared with CCCACCCCACACTCTATC, CCCAGCAAGTCCTCTGCC is higher in remaining target (mRNA or protein) (fraction of control): 0.47 for the first, 0.75 for the second.

First: CCCCGAGCCGCACTTCAG
Second: CCCGCCGCTCTCTGCCAA
The remaining target (mRNA or protein) (fraction of control) of the first is lower: 0.77 for the first, no less than 1 for the second.

Going from CCCTCGCGCTCGTACTCG to CCGAAGCGACCTCCCCGT, the remaining target (mRNA or protein) (fraction of control) rises from 0.42 to no less than 1.

CCGACAGAGAGGGCACCG and CCGTGTTATACTTTATTA cannot be ordered by remaining target (mRNA or protein) (fraction of control): no less than 1 for the first, no less than 1 for the second.

Going from CGATTCACTACAGGCTGA to CGCAGCGCATCCTCCAGC, the remaining target (mRNA or protein) (fraction of control) rises from 0.86 to 0.99.

CGGTCGGGCTGCTGGGCT and CGTAGGCCAGCGAGTCCA cannot be ordered by remaining target (mRNA or protein) (fraction of control): no less than 1 for the first, no less than 1 for the second.

First: CTCACCTCCTGGCCGCCT
Second: CTCTTCGTGCCCATTTTG
The remaining target (mRNA or protein) (fraction of control) of the first is lower: 0.76 for the first, 0.89 for the second.

Compared with CTGTTTTACTTCACTGCA, CTTGCGCCATTTGAGACC is lower in remaining target (mRNA or protein) (fraction of control): no less than 1 for the first, 0.7 for the second.

Going from GACCCTGGAACAGAAAAG to GAGGACTCCACAAACAGG, the remaining target (mRNA or protein) (fraction of control) rises from 0.9 to 0.93.

Going from GAGGCAGAATCCCCAATG to GAGTCCAGCGCCGGGTCC, the remaining target (mRNA or protein) (fraction of control) falls from no less than 1 to 0.48.

GATGCAACTCAAACAGCG and GCACGAAGCGCCGCAGCA cannot be ordered by remaining target (mRNA or protein) (fraction of control): no less than 1 for the first, no less than 1 for the second.

Going from GCAGGTCCAGCAGATAGG to GCATCCGACAGGACCACC, the remaining target (mRNA or protein) (fraction of control) rises from 0.9 to 0.93.

Compared with GCCAGCAAAGCGTCCAGC, GCCCGCAGAATCGCAGCT is lower in remaining target (mRNA or protein) (fraction of control): no less than 1 for the first, 0.75 for the second.

GCCGCACTTCAGATTTCG and GCGGCGGCGGCGGCTTCA cannot be ordered by remaining target (mRNA or protein) (fraction of control): no less than 1 for the first, no less than 1 for the second.

Going from GCGTAGGCATCCGACAGG to GCTCGTACTCGTAGGCCA, the remaining target (mRNA or protein) (fraction of control) rises from 0.97 to no less than 1.

First: GCTGCCCACCCACTCTTC
Second: GCTGCTGGGCTAGGATGC
The remaining target (mRNA or protein) (fraction of control) of the first is higher: no less than 1 for the first, 0.84 for the second.

Compared with GGAACAGAAAAGTCTGGG, GGAGGAAGCGGCCACAGG is lower in remaining target (mRNA or protein) (fraction of control): 0.93 for the first, 0.68 for the second.

Going from GGATCTTCAGCATCTGCA to GGATGGGAGAAGGTGAGG, the remaining target (mRNA or protein) (fraction of control) falls from no less than 1 to 0.55.

First: GGGAAGGCAATCAACTCT
Second: GGGCAGGTGGCGGCGGCG
The remaining target (mRNA or protein) (fraction of control) of the first is higher: no less than 1 for the first, 0.7 for the second.

Compared with GGTATGCGCTGCCCACCC, GGTGGCGGCGGCGGCGGC is lower in remaining target (mRNA or protein) (fraction of control): no less than 1 for the first, 0.99 for the second.

Going from GGTTCCCACGCCCGCCAG to GTCCAGCGAGGACTCCAC, the remaining target (mRNA or protein) (fraction of control) falls from no less than 1 to 0.36.

First: GTCCTTCAGGCTCAGCGG
Second: GTGCGCGTAGGCATCCGA
The remaining target (mRNA or protein) (fraction of control) of the first is lower: 0.75 for the first, no less than 1 for the second.

Going from TAGGCCAAGTGGAGTTTC to TCACTACAGGCTGACCCT, the remaining target (mRNA or protein) (fraction of control) rises from 0.58 to 0.74.

TCAGCCAGTTCTTCATCC and TCAGGGTCCCGTGGATGG cannot be ordered by remaining target (mRNA or protein) (fraction of control): no less than 1 for the first, no less than 1 for the second.

First: TCCACAAACAGGTATGCG
Second: TCCAGGTTCTCCAAAAGC
The remaining target (mRNA or protein) (fraction of control) of the first is higher: no less than 1 for the first, 0.46 for the second.

TCCTCTGCCAGGCTGGTG and TCTATCAAAGTACCTGAG cannot be ordered by remaining target (mRNA or protein) (fraction of control): no less than 1 for the first, no less than 1 for the second.

First: TCTGTTGGTCCTTCAGGC
Second: TGCGGGTCGCTGCGGTGG
The remaining target (mRNA or protein) (fraction of control) of the first is higher: no less than 1 for the first, 0.69 for the second.

TGCGGTGGATCTTCAGCA and TGCTCGTACAGTCCCTCG cannot be ordered by remaining target (mRNA or protein) (fraction of control): no less than 1 for the first, no less than 1 for the second.

First: TGGCTGCACCCCTGGTCT
Second: TGGGCTAGGATGCAACTC
The remaining target (mRNA or protein) (fraction of control) of the first is higher: no less than 1 for the first, 0.67 for the second.

target: GNA11; settings: ASO

Going from CTTCACCTCATCGCTCAG to CTTGAGCTCGCGCCGGGC, the remaining target (mRNA or protein) (fraction of control) falls from 0.8 to 0.69.

Going from CTTGATGGCACTGACGTA to CTTGTCCTCCTCCGAGTA, the remaining target (mRNA or protein) (fraction of control) falls from 0.22 to 0.21.

First: GACTCCTTCACCTCATCG
Second: GATCCACTTCCTCCGCTC
The remaining target (mRNA or protein) (fraction of control) of the first is higher: 0.85 for the first, 0.41 for the second.

Going from GATGAACTCCCGCGCCGC to GATGCTCGAAGGTGGTCA, the remaining target (mRNA or protein) (fraction of control) rises from 0.48 to 0.67.

GATGGACTCCAGAGTCAT and GATGGTGTCCTTCACGGC cannot be ordered by remaining target (mRNA or protein) (fraction of control): no less than 1 for the first, no less than 1 for the second.

Going from GCAGCAGCAGCTTGAGCT to GCAGGTAGCCCAAGGTGG, the remaining target (mRNA or protein) (fraction of control) falls from no less than 1 to 0.8.

Compared with GCAGGTCCTTCTTGTTGA, GCCATGATGGACTCCAGA is lower in remaining target (mRNA or protein) (fraction of control): 0.94 for the first, 0.25 for the second.

First: GCCCGTGCCGAGCAGCAG
Second: GCCTTGTTCTGCTCGTAC
The remaining target (mRNA or protein) (fraction of control) of the first is higher: no less than 1 for the first, 0.75 for the second.

Compared with GCGAGTACAGGATCTTGT, GCTGAGGGCGACGAGAAA is lower in remaining target (mRNA or protein) (fraction of control): 0.83 for the first, 0.25 for the second.

First: GCTGGTACTCGCGCCTGC
Second: GGAGGAGTTCTGGAACCA
The remaining target (mRNA or protein) (fraction of control) of the first is higher: 0.59 for the first, 0.36 for the second.

Going from GGTCAACGTCGGTCAGGT to GGTCACCTTCTCCACGTC, the remaining target (mRNA or protein) (fraction of control) falls from 0.82 to 0.73.

Going from GGTCCGGAACAGGGCTTT to GGTGGTGGGCACGCGGAC, the remaining target (mRNA or protein) (fraction of control) rises from 0.74 to no less than 1.

Going from GGTTCAGGTCCACGAACA to GTAGATGATCTTGTCGCT, the remaining target (mRNA or protein) (fraction of control) rises from 0.29 to no less than 1.

First: GTAGCCGGCGCCGTGGAT
Second: GTAGGTGATGATGGTCCG
The remaining target (mRNA or protein) (fraction of control) of the first is lower: 0.99 for the first, no less than 1 for the second.

First: GTCAGGTAGTACTTGGCA
Second: GTGGCGATGCGGTCAACG
The remaining target (mRNA or protein) (fraction of control) of the first is lower: 0.24 for the first, 0.99 for the second.

Going from TACTTGGCAGAGTCGGAG to TAGACGAGCTTGGTGAAG, the remaining target (mRNA or protein) (fraction of control) rises from 0.66 to no less than 1.

Going from TAGAGGATCTTGAGCGTC to TCAGGTTCAGCTGCAGGA, the remaining target (mRNA or protein) (fraction of control) falls from no less than 1 to 0.97.

First: TCCTGGATGCCCGGGTCC
Second: TCGATGATGCCGGTGGTG
The remaining target (mRNA or protein) (fraction of control) of the first is lower: 0.7 for the first, no less than 1 for the second.

First: TGAGGAAGAGGATGACGG
Second: TGCTCGTACTTGTAGAGG
The remaining target (mRNA or protein) (fraction of control) of the first is higher: no less than 1 for the first, 0.93 for the second.

TGGCGGTGAAGATGTTCT and TGTAGAGGATCTTGAGCG cannot be ordered by remaining target (mRNA or protein) (fraction of control): no less than 1 for the first, no less than 1 for the second.

TGTCACGTTCTCAAAGCA and TGTCCTCCTCCGAGTAGC cannot be ordered by remaining target (mRNA or protein) (fraction of control): no less than 1 for the first, no less than 1 for the second.

Going from TGTTCTCCAGGTCGAAAG to TGTTCTGGTAGACGAGCT, the remaining target (mRNA or protein) (fraction of control) rises from 0.67 to no less than 1.

TTGGCCTTGTTCTGCTCG was tested, and the remaining target (mRNA or protein) (fraction of control) was no less than 1.

target: AKT3; settings: ASO

Compared with AAAGGTAACCTCCCACAC, AAATGTGTTTGGCTTTGG is higher in remaining target (mRNA or protein) (fraction of control): 0.19 for the first, no less than 1 for the second.

Going from AACCCAACCTTCTTTCAC to AACCTCCCACACATCATT, the remaining target (mRNA or protein) (fraction of control) falls from no less than 1 to 0.22.

First: AACTGTGTCTCATAATTT
Second: AAGGTAAATCCACATCTT
The remaining target (mRNA or protein) (fraction of control) of the first is higher: no less than 1 for the first, 0.66 for the second.

Compared with AAGTTTCTCATGGTCCTG, AATCCACATCTTGAGGTT is higher in remaining target (mRNA or protein) (fraction of control): 0.43 for the first, no less than 1 for the second.

Compared with AATGATTTTGCATCTGAA, ACAATTCATTCTCTCCTC is higher in remaining target (mRNA or protein) (fraction of control): 0.94 for the first, no less than 1 for the second.

ACTGAAAAGTTGTTGAGG and AGAGAAGAAACTGTGTCT cannot be ordered by remaining target (mRNA or protein) (fraction of control): no less than 1 for the first, no less than 1 for the second.

AGCCTGGATAGCTTCTGT and AGCTTCTGTCCATTCTTC cannot be ordered by remaining target (mRNA or protein) (fraction of control): no less than 1 for the first, no less than 1 for the second.

Going from AGTCTACTGCTCGGCCAT to ATATACATCTTGCCAGTT, the remaining target (mRNA or protein) (fraction of control) rises from 0.21 to 0.87.
